pKd: −log10 of the molar value.
Legend:
[1] = Toxicity test of GGa-ICG (serum enzymatic testing); type: in vivo; details: serum of nude mice 72 hours after injection
Method: Blood serum was collected from nude mice injected with GGa-ICG for 72 hours and subjected to enzymatic testing.

[2] = system: prostate cancer lesions (PC-3 xenograft); assay: In vivo imaging in PC-3 mouse xenograft model; set-up: species or system BALB/c nude mice
Method: Male BALB/c nude mice (BALB/c-nude) were purchased from Beijing SLAC Laboratory Animal Co., Ltd. Five-week-old nude mice were subcutaneously injected with 5×10^6 PC-3 cells on the back. The tumor was allowed to grow for 15 to 20 days until it reached a diameter of 0.5-1.5 cm. The BALB/c nude mice bearing tumors were anesthetized with sedatives and anesthetics. Once the mice were immobilized, a designated dose (0.1 mg, 0.5 mg, 1 mg, 2 mg per injection) of GGa-ICG or ssDNA-ICG was injected through the tail vein. At certain time points, fluorescent images of live mice were collected using the IVIS Lumina II in vivo imaging system. For ex vivo fluorescent experiments, tumor-bearing mice that were intravenously injected with GGa-ICG or ssDNA-ICG were euthanized by cervical dislocation 1 hour after injection under anesthesia. After dissection, organs including brain, liver, kidney, spleen, lung, heart, and tumor tissue were imaged using the IVIS Lumina II in vivo imaging system as described above.

[3] = system: prostate cancer cell lines; assay: Cell binding by fluorescence microscope / flow cytometry; type: cell-based, human; details: 200 nM probe
Method: Therefore, 200 nM of GGa-ICG and ssDNA-ICG were used to confirm their specific binding. The method is as follows: • a. The human prostate cancer cell lines PC-3, DU145, LNCaP, 22RV1, immortalized normal human prostate epithelial cell line RWPE1, and human cervical cancer cell line Hela, as well as MCF7 cells obtained from the American Type Culture Collection (ATCC), were used in this study. All cell lines were cultured at 37° C. and 5% CO2 in a humidified environment. […]
After the cells reach a confluency of over 80%, they were passaged and grown for 24-48 hours until they reached a confluency of over 50%. They were then washed once with PBS (without Ca and Mg ions), twice with cold washing buffer, and incubated at room temperature (4° C. for the internalization inhibition group) for 30 minutes with the sample buffer containing near-infrared fluorescence probes GGa-ICG, ssDNA-ICG, and ICG to a final concentration of 200 nM (or as specified). The cells were observed under a fluorescence microscope or analyzed by flow cytometry after digestion with trypsin without EDTA. […]

[4] = biological target: T1, PSCA (Homo sapiens, UniProt O43653); assay: Binding site of GGa-ICG on PSCA protein; details: sequence ALQPGTALLCYSCKA
T1 sequence (O43653 12-83): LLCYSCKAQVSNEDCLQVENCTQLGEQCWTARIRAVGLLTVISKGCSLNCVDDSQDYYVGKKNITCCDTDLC

[5] = system: PC-3 cells; assay: Affinity detection by flow cytometry; type: binding, human; details: PC3 cells, 0-500 nM, 37° C., read-out: dissociation constant
Method: To test the affinity of different GGa-ICG aptamers for PC-3 cells, aptamers at different concentrations (0, 10, 20, 50, 100, 200, 500 nM) are incubated with 2×10^5 cells at 37° C. After digestion into a cell suspension, flow cytometry was used for analysis. The average fluorescence intensity of the background was subtracted from that of each sample. The equilibrium dissociation constant (Kd) for aptamer-cell interactions is calculated using SigmaPlot software.

[6] = biological target: T2, PSCA on PC-3 cells (Homo sapiens, UniProt O43653); assay: Antibody competition experiment by flow cytometry; type: cell-based; details: 200 nM GGa-ICG, 10 μg/mL anti-PSCA-FITC
T2 construct: Membrane proteins of PC-3 cells were extracted; endogenous in cells; host or cells: PC-3
T2 sequence (O43653 12-83): T1 sequence (O43653 12-83)
Method: A suspension of 5×10^5 cells of PC-3 or other cell lines was incubated with 200 nM of GGa-ICG or anti-PSCA-FITC antibody in 100 μL of binding buffer on ice for 30 minutes, washed again, and subjected to flow cytometry analysis (FACS Calibur instrument, BD Biosciences): 10,000 events were collected for each sample. ICG-labeled ssDNA-ICG was used as a negative control. For the antibody competition experiment, 5×10^5 cells were incubated with 200 nM of GGa-ICG in binding buffer on ice for 30 minutes, followed by the addition of 10 μg/mL of anti-PSCA-FITC antibody and further incubation for 30 minutes as the GGa-ICG blocking group. 10 μg/mL of anti-PSCA-FITC was incubated in binding buffer on ice for […], followed by the addition of 200 nM of GGa-ICG and further incubation for 30 minutes as the anti-PSCA-FITC blocking group. Both 200 nM of GGa-ICG and 10 μg/mL of anti-PSCA-FITC antibody were incubated on ice for 30 minutes as the combined group. After washing, the cells were resuspended and subjected to flow cytometry analysis.
To confirm the results of the mass spectrometry, the location of GGa-ICG and PSCA on PC-3 cells was first examined. To achieve this, PC-3 cells were incubated with […].

[7] = system: PC-3 cells; assay: Endocytosis experiment; type: cell-based, human; details: 37° C. vs 4° C., trypsin wash
Method: PC-3 cells were incubated with 200 nM GGa-ICG or ssDNA-ICG in 200 μL binding buffer at 37° C. for 10 minutes to observe cell membrane binding. After 2 hours of incubation, the cells were treated with 0.25% trypsin or 0.1 mg/mL proteinase K at 37° C. for 10 minutes to observe internal binding.
For inhibition of endocytosis, PC-3 cells were incubated with 200 nM GGa-ICG or ssDNA-ICG in 200 μL binding buffer at 4° C. for 2 hours to observe cell membrane binding. After 4 hours of incubation, the cells were treated with 0.25% trypsin or 0.1 mg/mL proteinase K at 37° C. for 10 minutes to observe internal binding.

[8] = doses of 0.1-2 mg/animal, tail vein

## GGa-ICG: near-infrared probe: PSCA-binding nucleic acid aptamer GGa linked at 3′ to an ICG derivative dye (DNA TGCCACTACAGCTGGTTCGGTTTGGTGACTTCGTTCTTCGTTGTGGT; 3'-ICG dye, further chemistry not given here)
[1]
  in vivo toxicity (serological test): did not show in vivo toxicity
[2]; [8]
  time of optimal detection after injection: 8 to 12 h
  time until which detection lasted: 24 to 48 h
[2]; intravenous injection, at 2, 4, and 8 hours
  binding to prostate cancer lesions in vivo: specifically bound
[2]; mouse, in vivo
  metabolism pathway: partially metabolized via the liver and kidney pathways
[2]; organs of tumor-bearing mice
  time within which probe in the organs was essentially metabolized: ≤ 24 h
[3]
  binding affinity of PC3, VCap and LNCap cell lines relative to DU-145, 22RV1 cells: stronger
  specific binding to prostate cancer cell lines: could specifically bind
[4]
  binding site on PSCA protein (amino acids): 14-28
[5]
  pKd: 7.26
[6]
  relationship with PSCA antibody in flow cytometry: competitive relationship
[7]
  mode of cell entry: enters cells through endocytosis
